Results published in paper PMC9549646, “Diversification of phenolic glucosides by two UDP-glucosyltransferases featuring complementary regioselectivity” (Microbial Cell Factories, 2022).

Experiments:
[1] = molecular target: T1, Prolyl endopeptidase (PEP) (Elizabethkingia meningoseptica, UniProt P27028); test: chromogenic PEP assay, inhibition rate at […]; format: biochemical
T1 construct: gene f1pep1

UGT85A1 = molecular target: T2, UGT85A1 (Arabidopsis thaliana, UniProt Q9SK82); test: in vitro glucosylation by purified enzyme, HPLC ([…] conversion); format: biochemical
T2 construct: N-terminal His6-tagged
T2 sequence (Q9SK82 1-489): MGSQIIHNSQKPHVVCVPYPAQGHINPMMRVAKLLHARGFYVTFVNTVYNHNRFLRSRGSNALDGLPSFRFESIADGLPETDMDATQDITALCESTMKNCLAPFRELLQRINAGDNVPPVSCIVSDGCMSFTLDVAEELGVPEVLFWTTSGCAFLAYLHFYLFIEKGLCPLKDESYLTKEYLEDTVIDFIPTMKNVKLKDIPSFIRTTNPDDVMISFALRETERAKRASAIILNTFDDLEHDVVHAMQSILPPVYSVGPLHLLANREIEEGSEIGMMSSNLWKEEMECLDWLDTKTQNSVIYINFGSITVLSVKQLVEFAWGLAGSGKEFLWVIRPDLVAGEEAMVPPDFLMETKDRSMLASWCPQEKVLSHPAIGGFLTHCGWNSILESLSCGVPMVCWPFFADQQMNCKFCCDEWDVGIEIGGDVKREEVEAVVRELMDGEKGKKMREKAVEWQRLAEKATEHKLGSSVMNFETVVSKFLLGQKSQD

T1 sequence (P27028 21-705): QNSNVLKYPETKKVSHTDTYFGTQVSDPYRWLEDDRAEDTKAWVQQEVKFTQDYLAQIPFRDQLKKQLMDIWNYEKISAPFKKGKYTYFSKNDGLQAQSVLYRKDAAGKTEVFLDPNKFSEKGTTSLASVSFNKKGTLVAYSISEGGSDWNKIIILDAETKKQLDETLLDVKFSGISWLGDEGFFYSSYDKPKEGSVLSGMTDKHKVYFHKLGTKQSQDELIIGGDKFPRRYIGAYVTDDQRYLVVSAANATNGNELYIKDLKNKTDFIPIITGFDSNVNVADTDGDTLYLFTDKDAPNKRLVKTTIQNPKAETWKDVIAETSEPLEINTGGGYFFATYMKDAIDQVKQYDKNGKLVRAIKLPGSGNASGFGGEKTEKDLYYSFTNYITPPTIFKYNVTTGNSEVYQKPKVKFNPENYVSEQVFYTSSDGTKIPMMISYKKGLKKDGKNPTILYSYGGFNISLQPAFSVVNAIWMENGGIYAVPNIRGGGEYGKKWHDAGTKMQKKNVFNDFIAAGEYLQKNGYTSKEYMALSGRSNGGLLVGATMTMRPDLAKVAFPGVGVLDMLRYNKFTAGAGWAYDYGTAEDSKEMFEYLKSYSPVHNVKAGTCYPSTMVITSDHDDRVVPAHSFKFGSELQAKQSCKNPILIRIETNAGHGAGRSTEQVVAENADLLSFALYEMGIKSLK

| Compound | inhibition at 500 µM [1] | in vitro glucosylation by purified enzyme, HPLC (98.9% conversion) (UGT85A1) |
| --- | --- | --- |
| OC[C@H]1O[C@@H](OCc2cccc(O)c2)[C@H](O)[C@@H](O)[C@@H]1O [12b] | > 50% | – |
| CC(O[C@@H]1O[C@H](CO)[C@@H](O)[C@H](O)[C@H]1O)c1ccc(O)cc1 (stereo partly shown) [13b] | > 50% | – |
| CC(O[C@@H]1O[C@H](CO)[C@@H](O)[C@H](O)[C@H]1O)c1cccc(O)c1 (stereo partly shown) [14b] | > 50% | – |
| OCc1ccc(O)cc1 [compound 1, p-hydroxybenzyl alcohol] | – | UGT85A1 showed higher selectivity than RrUGT17, producing only the alcoholic glucoside 1b |
